# Where two headings read alike, the source gives them in different places.
# How the values were obtained:
# [1] = target: T1, Full-length wild type HIV-1 integrase (SF1) (Human immunodeficiency virus type 1 group M subtype B, UniProt P04585); assay: Integrase strand-transfer scintillation proximity assay; assay type: biochemical
# T1 construct: made in house; host or cells: E. coli BL21 (DE3)
# Text: Integrase Strand-Transfer Scintillation Proximity Assay
# Oligonucleotides: Oligonucleotide #1-5′-(biotin)[…]-3′ (SEQ ID NO: 1) and oligonucleotide #2-5′-[…]-3′ (SEQ ID NO: 2), were synthesized by TriLink BioTechnologies, Inc. (San Diego, Calif.). The annealed product represents preprocessed viral ds-DNA derived from the LTR U5 sequence of the viral genome. A ds-DNA control to test for non-specific interactions was made using a 3′ di-deoxy derivative of oligonucleotide #1 annealed to oligonucleotide #2. The CA overhang at the 5′ end of the non-biotinylated strand of the ds-DNA was created artificially by using a complimentary DNA oligonucleotide shortened by 2 base pairs. This configuration eliminates the requisite 3′ processing step of the integrase enzyme prior to the strand-transfer mechanism.
# Host ds-DNA was prepared as an unlabeled and [^3H]-thymidine labeled product from annealed oligonucleotide #3-5-[…]-3′ (SEQ ID NO: 3), and oligonucleotide #4-1-5′-[…]-3′ (SEQ ID NO: 4), both synthesized by TriLink BioTechnologies, Inc. (San Diego, Calif.). The annealed product had overhanging 3′ ends of poly(dA). Host DNA was custom radiolabeled by PerkinElmer Life Sciences Inc. (Boston, Mass.) using an enzymatic method with a 12/1 ratio of [methyl-^3H]dTTP/cold ds-DNA to yield 5′-blunt end ds-DNA with a specific activity of >900 Ci/mmol. The radiolabeled product was purified using a NENSORB cartridge and stored in stabilized aqueous solution (PerkinElmer). The final radiolabeled product had six [^3H]-thymidine nucleotides at both 5′ ends of the host ds-DNA.
# Reagents: Streptavidin-coated polyvinyltoluene (PVT) SPA beads were purchased from Amersham Biosciences (Piscataway, N.J.). Cesium chloride was purchased from Shelton Scientific, Inc. (Shelton, Conn.). White, polystyrene, flat-bottom, non-binding surface, 96-well plates were purchased from Corning. All other buffer components were purchased from Sigma (St. Louis, Mo.) unless otherwise indicated.
# Enzyme Construction Full-length wild type HIV-1 integrase (SF1) sequence (amino acids 1-289) was constructed in a pET24a vector (Novagen, Madison, Wis.). The construct was confirmed through DNA sequencing.
# Enzyme Purification Full length wild-type HIV Integrase was expressed in E. coli BL21 (DE3) cells and induced with 1 mM isopropyl-1 thio-β-D-galactopyranoside (IPTG) when cells reached an optical density between 0.8-1.0 at 600 nm. Cells were lysed by microfluidation in 50 mM HEPES pH 7.0, 75 mM NaCl, 5 mM DTT, 1 mM 4-(2-Aminoethyl)benzenesulfonylfluoride HCl (AEBSF). Lysate was then centrifuged 20 minutes at 11 k rpm in GSA rotor in Sorvall RC-5B at 4° C. Supernant was discarded and pellet resuspended in 50 mM HEPES pH 7.0, 750 mM NaCl, 5 mM DTT, 1 mM AEBSF and homogenized in a 40 mL Dounce homogenizer for 20 minutes on ice. Homogenate was then centrifuged 20 minutes at 11 k rpm in SS34 rotor in Sorvall RC-5B at 4° C. Supernant was discarded and pellet resuspended in 50 mM HEPES pH 7.0, 750 mM NaCl, 25 mM CHAPS, 5 mM DTT, 1 mM AEBSF. Preparation was then centrifuged 20 minutes at 11 k rpm in SS34 rotor in Sorvall RC-5B at 4° C.
# Supernant was then diluted 1:1 with 50 mM HEPES pH 7.0, 25 mM CHAPS, 1 mM DTT, 1 mM AEBSF and loaded onto a Q-Sepharose column pre-equilibrated with 50 mM HEPES, pH 7.0, 375 mM NaCl, 25 mM CHAPS, 1 mM DTT, 1 mM AEBSF. The flow through peak was collected and NaCl diluted to 0.1 M with 50 mM HEPES pH 7.0, 25 mM CHAPS, 1 mM DTT, 0.5 mM AEBSF and loaded onto a SP-Sepharose column pre-equilibrated with 50 mM HEPES pH 7.0, 100 mM NaCl, 25 mM CHAPS, 1 mM DTT, 0.5 mM AEBSF. After washing the column with the equilibration buffer, a 100 to 400 mM NaCl gradient was run. The eluted integrase was concentrated and run on a S-300 gel diffusion column using 50 mM HEPES pH 7.0, 500 mM NaCl, 25 mM CHAPS, 1 mM DTT, 0.5 mM AEBSF. The peak from this column was concentrated to 0.76 mg/mL and stored at −70° C. and later used for strand transfer assays. […]
# [2] = test system: RF strain of HIV-1 in CEM-SS cells; assay: HIV-1 cell protection assay (XTT dye reduction); assay type: cell-based
# Experimental: HIV-1 Cell Protection Assay
# The antiviral activities of potential modulator compounds (test compounds) were determined in HIV-1 cell protection assays using the RF strain of HIV-1, CEM-SS cells, and the XTT dye reduction method (Weislow, O, S. et al., J. Natl. Cancer Inst 81: 577-586 (1989)). Subject cells were infected with HIV-1 RF virus at an moi of to affect about a 90% kill (for example, an moi in the range of from about 0.025 to about 0.819) or mock infected with medium only and added at 2×10^4 cells per well, with the addition of approximately 200 μL of medium, into 96 well plates containing half-log dilutions of test compounds. Six days later, 50 μl of XTT solution (1 mg/ml XTT tetrazolium and 20 nM phenazine methosulfate) were added to the wells and the plates were reincubated for four hours. Viability, as determined by the amount of XTT formazan produced, was quantified spectrophotometrically by absorbance at 450 nm.
# Data from CPE assays were expressed as the percent of formazan produced in compound-treated cells compared to formazan produced in wells of uninfected, compound-free cells. The fifty percent effective concentration (EC50) was calculated as the concentration of compound that affected an increase in the percentage of formazan production in infected, compound-treated cells to 50% of that produced by uninfected, compound-free cells. The 50% cytotoxicity concentration (CC50) was calculated as the concentration of compound that decreased the percentage of formazan produced in uninfected, compound-treated cells to 50% of that produced in uninfected, compound-free cells. The therapeutic index was calculated by dividing the cytotoxicity (CC50) by the antiviral activity (EC50).
# [3] = integrase strand-transfer SPA, read-out: IC50
# [4] = Human immunodeficiency virus 1, 144 h, HIV-1 RF, CEM-SS cells, XTT, six days, read-out: EC50
# [5] = Human immunodeficiency virus 1, CEM-SS, 144 h
structure (smiles),measurement,setting,value
"CC(=O)Nc1cn(Cc2ccc(F)cc2)c2cnc(C(=O)NO)cc12 [Example 1, 3-(acetylamino)-1-(4-fluorobenzyl)-N-hydroxy-1H-pyrrolo[2,3-c]pyridine-5-carboxamide]",IC50,[1]; [3],130 nM
same,EC50,[2]; [4],11 nM
"O=C(NO)c1cc2c(NS(=O)(=O)c3ccccc3)cn(Cc3ccc(F)cc3)c2cn1 [Example 3, 1-(4-fluorobenzyl)-N-hydroxy-3-[(phenylsulfonyl)amino]-1H-pyrrolo[2,3-c]pyridine-5-carboxamide]",IC50,[1],40.5 nM
same,EC50,[2]; [4],21 nM
"CN(O)C(=O)c1cc2c(NS(=O)(=O)c3ccccc3)cn(Cc3ccc(F)cc3)c2cn1 [Example 4, 1-(4-fluorobenzyl)-N-hydroxy-N-methyl-3-[(phenylsulfonyl)amino]-1H-pyrrolo[2,3-c]pyridine-5-carboxamide]",IC50,[1]; [3],360 nM
same,EC50,[2]; [4],42 nM
"CS(=O)(=O)Nc1cn(Cc2ccc(F)cc2)c2cnc(C(=O)NO)cc12 [Example 5, 1-(4-fluorobenzyl)-N-hydroxy-3-[(methylsulfonyl)amino]-1H-pyrrolo[2,3-c]pyridine-5-carboxamide]",IC50,[1]; [3],56 nM
same,EC50,[2]; [4],5.2 nM
"CN(O)C(=O)c1cc2c(NS(C)(=O)=O)cn(Cc3ccc(F)cc3)c2cn1 [Example 6, 1-(4-fluorobenzyl)-N-hydroxy-N-methyl-3-[(methylsulfonyl)amino]-1H-pyrrolo[2,3-c]pyridine-5-carboxamide]",IC50,[1]; [3],270 nM
same,EC50,[2]; [4],30 nM
"CONC(=O)c1cc2c(C(=O)NCCN3CCOCC3)cn(Cc3ccc(F)cc3)c2cn1 [Example 7, 1-(4-fluorobenzyl)-N~5~- methoxy-N~3~-(2-morpholin-4-ylethyl)-1H-pyrrolo[2,3-c]pyridine-3,5-dicarboxamide]",IC50,[1]; [3],550 nM
same,EC50,[2]; [5],62 nM
"CCN1CCCC1CNC(=O)c1cn(Cc2ccc(F)cc2)c2cnc(C(=O)NOC)cc12 (stereo not shown) [Example 8, N3~-[(1-ethylpyrrolidin-2-yl)methyl]-1-(4-fluorobenzyl)-N~5~- methoxy-1H-pyrrolo[2,3-c]pyridine-3,5-dicarboxamide]",IC50,[1]; [3],1400 nM
same,EC50,[2]; [5],700 nM
"CONC(=O)c1cc2c(C(=O)NCCCN3CCCC3=O)cn(Cc3ccc(F)cc3)c2cn1 [Example 9, 1-(4-fluorobenzyl)-N~5~- methoxy-N~3~-[3-(2-oxopyrrolidin-1-yl)propyl]-1H-pyrrolo[2,3-c]pyridine-3,5-dicarboxamide]",IC50,[1]; [3],267 nM
same,EC50,[2]; [5],42 nM
"CONC(=O)c1cc2c(C(=O)N3CCC[C@H]3CO)cn(Cc3ccc(F)cc3)c2cn1 [Example 10, 1-(4-fluorobenzyl)-3-{[(2S)-2-(hydroxymethyl)pyrrolidin-1-yl]carbonyl}-N-methoxy-1H-pyrrolo[2,3-c]pyridine-5-carboxamide]",IC50,[1]; [3],1140 nM
same,EC50,[2]; [5],40 nM
"CONC(=O)c1cc2c(C(=O)NCc3cnn(C)c3C)cn(Cc3ccc(F)cc3)c2cn1 [Example 11, N~3~-[(1,5-dimethyl-1H-pyrazol-4-yl)methyl]-1-(4-fluorobenzyl)-N~5~- methoxy-1H-pyrrolo[2,3-c]pyridine-3,5-dicarboxamide]",IC50,[1]; [3],530 nM
same,EC50,[2]; [5],67 nM
"CONC(=O)c1cc2c(C(=O)N3CCC(N(C)C)C3)cn(Cc3ccc(F)cc3)c2cn1 (stereo not shown) [Example 12, 3-{[3-(dimethylamino)pyrrolidin-1-yl]carbonyl)-1-(4-fluorobenzyl)-N-methoxy-1H-pyrrolo[2,3-c]pyridine-5-carboxamide]",IC50,[1]; [3],801 nM
same,EC50,[2]; [5],140 nM
"CONC(=O)c1cc2c(C(=O)N3CCCC(CO)C3)cn(Cc3ccc(F)cc3)c2cn1 (stereo not shown) [Example 13, 1-(4-fluorobenzyi)-3-{[3-(hydroxymethyl)piperidin-1-yl]carbonyl}-N-methoxy-1H-pyrrolo[2,3-c]pyridine-5-carboxamide]",IC50,[1]; [3],374 nM
same,EC50,[2]; [5],66 nM
"CN(O)C(=O)c1cc2c(C(=O)NCC34CCCN3CCC4)cn(Cc3ccc(F)cc3)c2cn1 [Example 14, 1-(4-fluorobenzyl)-N~5~- hydroxy-N~5~-methyl-N~3~-(tetrahydro-1H-pyrrolizin-7a(5H)-ylmethyl)-1H-pyrrolo[2,3-c]pyridine-3,5-dicarboxamide]",IC50,[1]; [3],2600 nM
same,EC50,[2]; [5],5400 nM
"CONC(=O)c1cc2c(C(=O)NC(CC(=O)NC3CC3)C3CC3)cn(Cc3ccc(F)cc3)c2cn1 (stereo not shown) [Example 15, N~3~-[1-cyclopropyl-3-(cyclopropylamino)-3-oxopropyl]-1-(4-fluorobenzyl)-N~5~- methoxy-1H-pyrrolo[2,3-c]pyridine-3,5-dicarboxamide]",IC50,[1]; [3],300 nM
same,EC50,[2]; [5],120 nM
"CN(O)C(=O)c1cc2c(C(=O)NCCCN3CCCC3=O)cn(Cc3ccc(F)cc3)c2cn1 [Example 16, 1-(4-fluorobenzyl)-N~5~- hydroxy-N~5~-methyl-N~3~-[3-(2-oxopyrrolidin-1-yl)propyl]-1H-pyrrolo[2,3-c]pyridine-3,5-dicarboxamide]",IC50,[1]; [3],211 nM
same,EC50,[2]; [5],180 nM
"Cc1c(CNC(=O)c2cn(Cc3ccc(F)cc3)c3cnc(C(=O)N(C)O)cc23)cnn1C [Example 17, N~3~-[(1,5-dimethyl-1H-pyrazol-4-yl)methyl]-1-(4-fluorobenzyl)-N~5~- hydroxy-N~5~-methyl-1H-pyrrolo[2,3-c]pyridine-3,5-dicarboxamide]",IC50,[1]; [3],168 nM
same,EC50,[2]; [5],110 nM
"CN(O)C(=O)c1cc2c(C(=O)NC(CC(=O)NC3CC3)C3CC3)cn(Cc3ccc(F)cc3)c2cn1 (stereo not shown) [Example 18, N~3~-[1-cyclopropyl-3-(cyclopropylamino)-3-oxopropyl]-1-(4-fluorobenzyl)-N~5~- hydroxy-N~5~-methyl-1H-pyrrolo[2,3-c]pyridine-3,5-dicarboxamide]",IC50,[1]; [3],230 nM
same,EC50,[2]; [5],460 nM

# From patent publication US20090170846A1, “INHIBITORS OF THE HIV INTEGRASE ENZYME” (Pfizer Inc, priority 2005, published 2009)
